Patent US12240854B2, “TRAF 6 inhibitors” (Helmholtz Zentrum München - Deutsches Forschungszentrum für …, priority 2018, dated 2025)
Entries after “also recorded” stand apart in the source; their conditions may differ.

Experiments:
[1] = tested on: TRAF6 auto-ubiquitination in Jurkat T-cells; assay: Immunoprecipitation of TRAF6 for endogenous ubiquitination, Jurkat T-cells; assay type: cell-based, human; settings: PMA/Ionomycin
[2] = tested on: 24 different Ubiquitin reaction cascades (E2, E3 and substrate combinations); assay: Ubiquitin Profiler (Eurofins), single point; assay type: biochemical; settings: 30 μM, 24 reactions
Protocol: C25-140 was sent to Eurofins Pharma Discovery Services UK to perform a Single Point Ubiquitin Profiler testing of C25-140 effect at a concentration of 30 μM on 24 different Ubiquitin reaction cascades employing distinct combinations of E2, E3 and substrate. Each reaction was measured in duplicates. Cascade activity is expressed as a percentage of the mean cascade activity in the positive control samples. The positive control value is considered to be 100%, and all test samples are referred to this value.

MEF cells = assay: CellTiter-Glo viability assay, MEF cells; assay type: cell-based, mouse; settings: 6 or 24 hours incubation
Protocol: For cell viability experiments using the CellTiter-Glo® 2.0 system (Promega), MEF cells (1.2×10^3 cells/well), HepG2 cells (4×10^3 cells/well) and Jurkat T-cells (5×10^3 cells/well) were seeded in 384 well plates. After 18 hours, cells were treated with compounds using the Sciclone G3 automation system. After 6 or 24 hours incubation, the luciferase measurement was performed according to the manufacturer's manual.

[3] = tested on: primary murine CD4+ T-cells; assay: Primary mouse CD4+ T-cells, CD3/CD28 stimulation (qRT-PCR, ELISA); assay type: cell-based; settings: primary naive CD4+ T-cells
Protocol: For MEF cells, 1.2×10^5 cells per sample were seeded, treated with compound for 6 hours and stimulated with either IL-1β or TNFα for 60 minutes. […] RNA was isolated according to the manufacturer's protocol of the Qiagen RNeasy Kit (MEF cells) or the STRATEC INVITRAP® SPIN UNIVERSAL RNA MINI KIT (Jurkat T-cells). The isolation of mRNA from […] white adipose tissue from DIO mice was performed using TRIzol® Reagent according to manufacturer's instruction. To clear the isolated RNA from genomic DNA, samples (up to 5 μg RNA) were treated with RQ1 RNase-Free DNaseI (Promega) as described in the technical manual. […] For quantification of cDNA in the samples, the LightCylcer480 (Roche) and the KAPA SYBR FAST qPCR Kit were used. For relative quantification, the ΔΔCp method first described by Pfaffl (Pfaffl, M. W., A new mathematical model for relative quantification in real-time RT-PCR. Nucleic Acids Res, 2001. 29(9): p. e45) was applied. […]
For measurement of cytokine secretion, 2×10^5 Jurkat T-cells or primary CD4^+ T-cells or human PBMCs per sample were seeded, treated with compound for 6 hours and stimulated as indicated. 20 hours after stimulation, supernatants were harvested and analyzed with the IL-2, IL-1β and TNFα Ready-Set-Go! […]

E6AP = target: T1, E6AP (Homo sapiens, UniProt Q05086); assay: In vitro ubiquitination assay, E6AP ubiquitin ligase kit; assay type: biochemical
T1 construct: purchased Boston Biochem
T1 sequence (Q05086 whole entry): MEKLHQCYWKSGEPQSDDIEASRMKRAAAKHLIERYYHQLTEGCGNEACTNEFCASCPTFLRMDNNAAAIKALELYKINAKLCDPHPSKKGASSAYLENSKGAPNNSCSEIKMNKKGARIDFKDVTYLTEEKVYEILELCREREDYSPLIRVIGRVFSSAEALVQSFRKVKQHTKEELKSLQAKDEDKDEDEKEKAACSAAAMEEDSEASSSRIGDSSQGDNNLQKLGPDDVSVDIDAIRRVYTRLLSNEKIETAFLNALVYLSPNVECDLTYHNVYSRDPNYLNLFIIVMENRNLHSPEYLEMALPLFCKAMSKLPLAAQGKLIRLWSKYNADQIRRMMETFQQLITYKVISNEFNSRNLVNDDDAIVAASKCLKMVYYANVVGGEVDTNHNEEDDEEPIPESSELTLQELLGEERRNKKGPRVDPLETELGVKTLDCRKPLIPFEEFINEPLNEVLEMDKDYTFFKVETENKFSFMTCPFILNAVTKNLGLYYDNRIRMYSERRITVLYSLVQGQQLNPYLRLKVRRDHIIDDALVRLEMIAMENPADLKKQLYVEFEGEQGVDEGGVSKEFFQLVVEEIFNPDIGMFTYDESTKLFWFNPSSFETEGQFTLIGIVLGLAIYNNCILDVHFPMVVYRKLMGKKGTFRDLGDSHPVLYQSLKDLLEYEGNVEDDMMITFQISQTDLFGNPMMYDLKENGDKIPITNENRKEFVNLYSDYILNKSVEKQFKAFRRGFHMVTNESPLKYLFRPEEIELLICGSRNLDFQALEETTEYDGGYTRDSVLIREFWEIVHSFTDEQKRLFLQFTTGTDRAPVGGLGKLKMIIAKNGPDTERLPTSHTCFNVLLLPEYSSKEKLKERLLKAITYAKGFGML
Protocol: For analysis of cIAP1, MDM2, TRIM63, RNF4, ITCH and E6AP mediated poly-ubiquitination, the respective ubiquitin ligase kit from Boston Biochem (K-102, K-260, K-200B, K-220, K-240 and K-270) was used. Here, reaction buffer, E1, E2 and E3 enzyme (and p53 substrate in case of MDM2) were mixed and pre-incubated with compound or DMSO for 5 minutes at room temperature before adding Mg^2+-ATP and mono-ubiquitin for reaction start. Ubiquitination was visualized by Western Blot analyses.

[4] = tested on: IMQ-induced psoriasis in Balb/C mice; assay: Imiquimod (IMQ)-induced psoriasis mouse model; assay type: in vivo
Protocol: To evaluate the anti-inflammatory activity of the compound C25-140 (compound 3), an Imiquimod (IMQ)-induced psoriasis mouse model was conducted by Washington Biotechnology, Inc. (Baltimore, USA). Per group, 8 male Balb/C mice were shaved in the back (1.5 cm×2 cm) and IMQ and C25-140 were applied topically to the shaved back and the right ear daily for 6 days. Thereby, C25-140 was dissolved in acetone and applied at a total dosage of 500 μg per day (2×250 μg). Mice were monitored and daily scores (erythema, scaling and thickness of back skin) were independently collected on a scale from 0 to 4: 0=none; 1=slight; 2=moderate; 3=marked and 4=very marked. Ear thickness was measured by electronic calipers as an indicator of edema. IL-17 cytokine secretion of the right ear tissue was measured by ELISA.

[5] = tested on: 87 primary molecular targets (kinases, non-kinase enzymes, nuclear receptors, GPCRs, transporters and ion channels); assay: SafetyScreen87 (Eurofins Cerep Panlabs); assay type: binding; settings: 10 μM
Protocol: The SafetyScreen87, a total of 87 assays, was carried out at Eurofins Cerep Panlabs. 87 primary molecular targets including 13 enzyme assays (kinases and non-kinase enzymes) and 74 binding assays (nuclear receptors, GPCRs, transporters and ion channels) were performed at a compound concentration of 10 μM C25-140. Each of the 87 assay reactions was performed at the optimised condition that was historically available at Eurofins Cerep Panlabs. In parallel to C25-140, a reference compound for each of the 87 reactions was concurrently tested to guarantee optimal setting of the assays. In this study the reference compounds performed in the same range as historic Ki values.

[6] = topical, 2x250 μg per day, 6 days
[7] = topical, 2x250 μg per day, 6 days, listed as 25-140

SMILES: Cc1nn(-c2ccc3nnc(C)n3n2)c(C)c1CCC(=O)N1CCC(Cc2ccccc2)CC1 [Example C25-140, 1-(4-Benzylpiperidin-1-yl)-3-(3,5-dimethyl-1-(3-methyl-[1,2,4]-triazolo-[4,3-b]-pyridazin-6-yl)-1H-pyrazol-4-yl)-propan-1-one]
- TRAF6 auto-ubiquitination upon TCR stimulation [1]: dose-dependently diminished; also recorded: dose-dependently reduced
- Ubiquitin Profiler cascade activity [2]: None of these reactions was inhibited; also recorded: None of the reactions is considerably inhibited
- metabolic activity and cell viability (MEF cells): did not considerably impact cell viability; also recorded: does not considerably affect metabolic activity and cell viability up to 50 μM; also recorded: at the highest dose of 100 μM toxicity is noticeable
- IL-2 mRNA expression [3]: impaired
- IL-2 protein secretion [3]: counteracted; also recorded: impaired
- S5A ubiquitination by E6AP (E6AP): not influenced; also recorded: not affected
- psoriasis symptoms / disease outcome (in words) ([4]; IMQ-induced psoriasis): ameliorates disease outcomes; also recorded: ameliorates symptoms
- IL-17 cytokine in right ear tissue ([4]; day 6, ELISA): significantly reduced; also recorded: decreased
- cumulative score [4, 6]: reduces
- ear thickness [4, 6]: significantly reduced
- erythema score of the back [4, 6]: improvement of the disease symptoms
- scaling score [4, 6]: improvement of the disease symptoms
- thickness score of the back [4, 6]: significantly reduce
- cumulative score [4, 7]: significantly reduce
- ear thickness [4, 7]: improvement of the disease symptoms
- effect on / binding to the 87 SafetyScreen87 targets [5]: no significant binding; also recorded: did not markedly affect any of the 87 molecular targets
